Data as given in the supplement of paper PMC12076712.

Legend:
Test in all cases: pIC50, kinobeads binding competition
[1] = target: T1, MAP4K2 (UniProt Q12851)
T1 sequence (whole entry): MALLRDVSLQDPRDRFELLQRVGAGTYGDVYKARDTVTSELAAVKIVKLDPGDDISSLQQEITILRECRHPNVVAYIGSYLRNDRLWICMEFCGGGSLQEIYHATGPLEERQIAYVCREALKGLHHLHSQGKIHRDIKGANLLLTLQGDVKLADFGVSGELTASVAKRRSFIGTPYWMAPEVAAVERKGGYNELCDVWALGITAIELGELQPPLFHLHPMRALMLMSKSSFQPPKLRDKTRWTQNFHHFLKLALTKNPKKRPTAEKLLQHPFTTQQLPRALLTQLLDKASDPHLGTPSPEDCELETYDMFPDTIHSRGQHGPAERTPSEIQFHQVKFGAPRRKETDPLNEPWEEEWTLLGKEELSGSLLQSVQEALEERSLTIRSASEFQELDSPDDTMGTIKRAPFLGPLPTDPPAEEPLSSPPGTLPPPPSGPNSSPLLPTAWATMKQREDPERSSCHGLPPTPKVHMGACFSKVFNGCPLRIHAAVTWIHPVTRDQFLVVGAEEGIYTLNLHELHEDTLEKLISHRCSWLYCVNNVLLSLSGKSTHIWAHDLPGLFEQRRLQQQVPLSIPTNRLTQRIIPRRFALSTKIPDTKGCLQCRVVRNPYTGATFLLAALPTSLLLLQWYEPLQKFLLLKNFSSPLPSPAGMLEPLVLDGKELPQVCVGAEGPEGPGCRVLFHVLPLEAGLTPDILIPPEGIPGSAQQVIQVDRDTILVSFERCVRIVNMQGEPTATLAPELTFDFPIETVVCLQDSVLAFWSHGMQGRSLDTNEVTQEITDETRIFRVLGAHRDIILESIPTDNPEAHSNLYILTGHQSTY
Outline: (§1)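 Fold changes relative to vehicle, from biological duplicates, were fitted with logistic dose-response models in the R drc package to give pIC50. These fold changes came from TMT10 LC-MS/MS quantification of digested Kinobeads-bound proteins. Compound was applied at nine concentrations (top 30 μM) either to live Jurkat cells in 1:4 steps for 60 min at 37 °C before lysis, or to Jurkat lysate or a 1:1:1:1 HEK293/K-562/HepG2/placenta lysate mix in 1:5 steps for 60 min at 4 °C.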

[2] = target: T2, TGFBR1 (UniProt P36897)
T2 sequence (whole entry): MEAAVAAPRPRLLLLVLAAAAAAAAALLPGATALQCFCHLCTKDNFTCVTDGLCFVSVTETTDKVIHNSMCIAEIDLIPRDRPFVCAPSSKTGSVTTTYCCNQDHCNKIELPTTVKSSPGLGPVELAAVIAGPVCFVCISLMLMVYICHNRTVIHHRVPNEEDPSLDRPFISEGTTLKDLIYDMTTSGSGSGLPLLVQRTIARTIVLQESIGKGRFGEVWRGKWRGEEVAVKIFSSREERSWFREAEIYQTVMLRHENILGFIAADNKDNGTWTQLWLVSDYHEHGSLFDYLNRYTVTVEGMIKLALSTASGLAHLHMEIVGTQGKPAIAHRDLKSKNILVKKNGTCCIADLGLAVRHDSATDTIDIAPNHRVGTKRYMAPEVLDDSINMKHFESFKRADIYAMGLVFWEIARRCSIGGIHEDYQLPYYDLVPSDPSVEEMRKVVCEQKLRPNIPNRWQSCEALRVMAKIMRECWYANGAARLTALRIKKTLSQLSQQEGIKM
Outline: as §1

[3] = target: T3, ACVR1 (UniProt Q04771)
T3 sequence (whole entry): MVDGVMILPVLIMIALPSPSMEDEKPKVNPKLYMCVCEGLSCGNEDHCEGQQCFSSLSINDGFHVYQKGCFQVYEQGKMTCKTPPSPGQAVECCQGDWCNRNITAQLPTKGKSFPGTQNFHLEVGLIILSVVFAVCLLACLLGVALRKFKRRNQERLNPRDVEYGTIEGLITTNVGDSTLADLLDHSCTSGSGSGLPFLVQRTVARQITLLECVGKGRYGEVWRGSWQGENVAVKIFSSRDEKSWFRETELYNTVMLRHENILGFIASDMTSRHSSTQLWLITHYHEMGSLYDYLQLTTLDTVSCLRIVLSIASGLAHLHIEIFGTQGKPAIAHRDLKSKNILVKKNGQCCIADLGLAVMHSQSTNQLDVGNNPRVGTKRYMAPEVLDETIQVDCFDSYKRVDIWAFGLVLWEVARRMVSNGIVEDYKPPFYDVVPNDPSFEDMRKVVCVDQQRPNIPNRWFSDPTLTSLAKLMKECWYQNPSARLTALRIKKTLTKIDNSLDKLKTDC
Outline: as §1

[4] = target: TYK2 (UniProt P29597)
Outline: as §1

[5] = target: UniProt P45983
Outline: as §1

[6] = target: UniProt Q96GD4
Outline: as §1

[7] = target: T4, PRKG1 (UniProt Q13976); details: cell material: Lysate mix
T4 sequence (whole entry): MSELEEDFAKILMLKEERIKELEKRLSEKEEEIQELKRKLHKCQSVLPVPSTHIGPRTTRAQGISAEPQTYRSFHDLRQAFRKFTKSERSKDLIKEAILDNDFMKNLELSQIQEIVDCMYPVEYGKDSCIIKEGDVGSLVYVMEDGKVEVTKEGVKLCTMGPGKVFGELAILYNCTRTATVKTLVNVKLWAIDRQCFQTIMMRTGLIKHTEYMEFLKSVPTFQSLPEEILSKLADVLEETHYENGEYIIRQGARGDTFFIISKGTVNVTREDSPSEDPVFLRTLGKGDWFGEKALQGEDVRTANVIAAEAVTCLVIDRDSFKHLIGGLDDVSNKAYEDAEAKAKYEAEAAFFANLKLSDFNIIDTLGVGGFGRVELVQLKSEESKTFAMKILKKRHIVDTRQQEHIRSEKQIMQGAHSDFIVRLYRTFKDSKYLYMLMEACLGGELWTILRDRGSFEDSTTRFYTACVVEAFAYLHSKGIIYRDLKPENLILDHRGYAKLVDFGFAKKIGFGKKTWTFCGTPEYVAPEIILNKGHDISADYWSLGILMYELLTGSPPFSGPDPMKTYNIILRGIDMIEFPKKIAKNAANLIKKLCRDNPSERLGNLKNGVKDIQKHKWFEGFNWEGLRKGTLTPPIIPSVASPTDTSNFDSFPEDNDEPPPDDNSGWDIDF
Outline: as §1

[8] = target: UniProt O75716
Outline: as §1

UniProt Q96GD4, sequence (Q96GD4 whole entry): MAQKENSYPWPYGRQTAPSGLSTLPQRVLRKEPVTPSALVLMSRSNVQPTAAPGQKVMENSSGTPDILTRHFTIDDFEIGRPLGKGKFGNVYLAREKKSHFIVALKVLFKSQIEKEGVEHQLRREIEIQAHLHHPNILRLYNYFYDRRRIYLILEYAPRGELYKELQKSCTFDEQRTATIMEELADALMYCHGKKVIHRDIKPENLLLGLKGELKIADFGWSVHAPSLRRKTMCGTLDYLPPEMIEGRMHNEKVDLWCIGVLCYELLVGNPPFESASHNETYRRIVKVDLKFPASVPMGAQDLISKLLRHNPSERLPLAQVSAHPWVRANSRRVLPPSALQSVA
UniProt P45983, sequence (P45983 whole entry): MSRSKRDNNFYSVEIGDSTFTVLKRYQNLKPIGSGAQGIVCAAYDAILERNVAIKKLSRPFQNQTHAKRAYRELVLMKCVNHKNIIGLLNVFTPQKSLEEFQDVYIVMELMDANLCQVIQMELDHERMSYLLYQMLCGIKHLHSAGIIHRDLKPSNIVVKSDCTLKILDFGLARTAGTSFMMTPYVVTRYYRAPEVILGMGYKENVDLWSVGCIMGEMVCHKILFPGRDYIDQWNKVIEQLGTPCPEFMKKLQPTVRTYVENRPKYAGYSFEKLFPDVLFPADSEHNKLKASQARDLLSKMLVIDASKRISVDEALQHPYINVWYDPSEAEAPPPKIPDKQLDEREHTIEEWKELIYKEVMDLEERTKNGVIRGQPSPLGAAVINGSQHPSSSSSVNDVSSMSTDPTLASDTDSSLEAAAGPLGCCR
UniProt O75716, sequence (O75716 whole entry): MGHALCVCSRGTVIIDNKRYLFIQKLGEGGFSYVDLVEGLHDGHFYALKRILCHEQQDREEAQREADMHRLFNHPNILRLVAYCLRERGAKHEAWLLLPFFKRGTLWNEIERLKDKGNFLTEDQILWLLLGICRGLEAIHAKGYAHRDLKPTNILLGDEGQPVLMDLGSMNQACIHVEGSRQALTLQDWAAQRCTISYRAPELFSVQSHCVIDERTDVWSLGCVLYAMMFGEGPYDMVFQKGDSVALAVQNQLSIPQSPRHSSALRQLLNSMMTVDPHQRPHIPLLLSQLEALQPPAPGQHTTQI
TYK2, sequence (P29597 whole entry): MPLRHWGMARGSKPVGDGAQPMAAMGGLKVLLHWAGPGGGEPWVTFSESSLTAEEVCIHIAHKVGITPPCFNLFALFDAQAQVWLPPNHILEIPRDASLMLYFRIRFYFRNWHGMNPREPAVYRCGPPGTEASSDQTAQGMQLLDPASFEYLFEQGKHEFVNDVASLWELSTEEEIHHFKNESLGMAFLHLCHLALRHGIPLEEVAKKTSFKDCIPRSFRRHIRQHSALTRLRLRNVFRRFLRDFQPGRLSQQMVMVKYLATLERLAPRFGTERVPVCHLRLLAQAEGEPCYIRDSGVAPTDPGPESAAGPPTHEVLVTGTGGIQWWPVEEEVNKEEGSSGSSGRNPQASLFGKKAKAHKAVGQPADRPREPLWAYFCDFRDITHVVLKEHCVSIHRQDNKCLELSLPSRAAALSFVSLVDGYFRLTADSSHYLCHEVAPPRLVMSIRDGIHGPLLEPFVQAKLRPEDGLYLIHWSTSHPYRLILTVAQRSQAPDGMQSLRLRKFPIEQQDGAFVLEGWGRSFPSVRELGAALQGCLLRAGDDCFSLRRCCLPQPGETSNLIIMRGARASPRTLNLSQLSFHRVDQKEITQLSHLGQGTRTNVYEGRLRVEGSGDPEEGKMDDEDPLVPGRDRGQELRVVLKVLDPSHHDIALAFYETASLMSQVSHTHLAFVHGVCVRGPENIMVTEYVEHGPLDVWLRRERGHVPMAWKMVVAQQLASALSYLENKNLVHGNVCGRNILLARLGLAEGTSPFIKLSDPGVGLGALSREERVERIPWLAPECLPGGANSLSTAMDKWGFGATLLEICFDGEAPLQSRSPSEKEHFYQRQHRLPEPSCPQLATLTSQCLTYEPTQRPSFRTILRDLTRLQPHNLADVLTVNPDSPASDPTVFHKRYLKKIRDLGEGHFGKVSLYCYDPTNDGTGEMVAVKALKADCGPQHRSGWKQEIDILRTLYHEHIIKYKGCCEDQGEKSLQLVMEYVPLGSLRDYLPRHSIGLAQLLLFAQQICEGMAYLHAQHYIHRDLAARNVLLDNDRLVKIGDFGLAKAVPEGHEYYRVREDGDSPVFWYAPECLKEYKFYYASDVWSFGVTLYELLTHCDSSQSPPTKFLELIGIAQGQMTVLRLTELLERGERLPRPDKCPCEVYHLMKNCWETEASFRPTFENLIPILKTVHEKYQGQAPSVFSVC

pIC50 ([1]; cell material: Lysate mix)	pIC50 ([2]; cell material: Lysate mix)	pIC50 ([3]; cell material: Lysate mix)	pIC50 ([4]; cell material: Lysate mix)	pIC50 ([5]; cell material: Lysate mix)	pIC50 ([6]; cell material: Lysate mix)	pIC50 [7]	pIC50 ([8]; cell material: Lysate mix)	SMILES	pIC50 ([1]; cell material: Jurkat cells)	pIC50 ([1]; cell material: Jurkat lysate)	pIC50 ([2]; cell material: Jurkat cells)	pIC50 ([2]; cell material: Jurkat lysate)	pIC50 ([3]; cell material: Jurkat cells)	pIC50 ([3]; cell material: Jurkat lysate)	pIC50 ([4]; cell material: Jurkat cells)	pIC50 ([4]; cell material: Jurkat lysate)	pIC50 ([5]; cell material: Jurkat cells)	pIC50 ([5]; cell material: Jurkat lysate)	pIC50 ([6]; cell material: Jurkat cells)	pIC50 ([8]; cell material: Jurkat cells)	pIC50 ([8]; cell material: Jurkat lysate)	pIC50 ([6]; cell material: Jurkat lysate)
< 4.52	< 4.52	< 4.52	< 4.52	< 4.52	4.92	< 4.52	< 4.52	Cc1cc(Nc2cc(C(=O)NCCNC(=O)OC3CC/C=C/CCC3)nc(N3CCN(Cc4ccc(S(=O)(=O)F)cc4)CC3)n2)n[nH]1 (stereo not given)	–	–	–	–	–	–	–	–	–	–	–	–	–	–
4.81	4.71	< 4.52	< 4.52	4.6	5.94	< 4.52	4.89	C#CCNC(=O)c1cc(Nc2cc(C)[nH]n2)nc(N2CCN(Cc3ccc(S(=O)(=O)F)cc3)CC2)n1	–	–	–	–	–	–	–	–	–	–	–	–	–	–
< 4.52	< 4.52	< 4.52	< 4.52	< 4.52	4.98	< 4.52	< 4.52	O=C(NCCNC(=O)c1cc(Nc2cc(C3CC3)[nH]n2)nc(N2CCN(Cc3ccc(S(=O)(=O)F)cc3)CC2)n1)OC1CC/C=C/CCC1 (stereo not given)	5.33	< 4.52	4.81	< 4.52	4.68	< 4.52	< 4.52	< 4.52	4.88	< 4.52	6.39	4.81	< 4.52	–
4.7	4.78	< 4.52	< 4.52	4.64	6.13	< 4.52	4.87	CCNC(=O)c1cc(Nc2cc(C)[nH]n2)nc(N2CCN(Cc3ccc(S(=O)(=O)F)cc3)CC2)n1	–	–	–	–	–	–	–	–	–	–	–	–	–	–
4.88	5.41	4.74	< 4.52	4.65	5.94	< 4.52	5.46	CCNC(=O)c1cc(Nc2cc(C3CC3)[nH]n2)nc(N2CCN(Cc3ccc(S(=O)(=O)F)cc3)CC2)n1	–	–	–	–	–	–	–	–	–	–	–	–	–	–

SMILES	pIC50 ([1]; cell material: Lysate mix)	pIC50 ([2]; cell material: Lysate mix)	pIC50 ([3]; cell material: Lysate mix)	pIC50 ([4]; cell material: Lysate mix)	pIC50 ([5]; cell material: Lysate mix)	pIC50 ([6]; cell material: Lysate mix)	pIC50 [7]	pIC50 ([8]; cell material: Lysate mix)	pIC50 ([1]; cell material: Jurkat cells)	pIC50 ([1]; cell material: Jurkat lysate)	pIC50 ([2]; cell material: Jurkat cells)	pIC50 ([2]; cell material: Jurkat lysate)	pIC50 ([3]; cell material: Jurkat cells)	pIC50 ([3]; cell material: Jurkat lysate)	pIC50 ([4]; cell material: Jurkat cells)	pIC50 ([4]; cell material: Jurkat lysate)	pIC50 ([5]; cell material: Jurkat cells)	pIC50 ([5]; cell material: Jurkat lysate)	pIC50 ([6]; cell material: Jurkat cells)	pIC50 ([8]; cell material: Jurkat cells)	pIC50 ([8]; cell material: Jurkat lysate)	pIC50 ([6]; cell material: Jurkat lysate)
C#CCNC(=O)c1cc(Nc2cc(C3CC3)[nH]n2)nc(N2CCN(Cc3ccc(S(=O)(=O)F)cc3)CC2)n1	5.36	5.46	5.14	< 4.52	4.72	6.22	< 4.52	5.32	5.92	4.56	5.75	4.84	5.78	4.66	< 4.52	< 4.52	5.34	< 4.52	6.67	5.82	4.92	5.72
